Test [1] addresses T1, PI3Kγ (p120γ) (Homo sapiens, UniProt P48736).
T1 construct: purchased Upstate Cell Signaling Solutions / Upstate USA
Briefly: PI3K luminescence kinase assay (Kinase-Glo), IC50. It counts as biochemical. Particulars: Table 1, mean of triplicate values. Here is the method: The IC50 value for compounds were determined using a luminescence-based kinase assay with recombinant phosphatidylinositol 3-kinase-p120γ (PI3K) obtained from Upstate Cell Signaling Solutions. […] The reaction was initiated by the addition of 10 μL of ATP to a final assay concentration of 3 μM. After the reaction was to proceed for 90 min, 50 μL of Kinase-Glo reagent (Promega) was added to terminate the reaction. This solution was then allowed to proceed for an additional 10 min to maximize the luminescence reaction. […] Two control reactions were also ran: one containing no compound and the second containing neither compound nor the phosphatidylinositol 4,5-bisphosphate substrate. Data from four wells were then averaged and used to determine IC50 values for the test compounds. IC50 values were derived from experimental data using the non-linear curve fitting capabilities of Prism (Version 4; GraphPad Software).

Test [2] relates to four isoforms of PI3K. Kind of test: PI3K isoform profiles. It counts as biochemical. Here is the method: Identification of PI3K isoform-selective inhibitors.
Kinase assays: For PI3K assays, 40 μL reaction buffer (20 mM Tris, 4 mM MgCl2, 10 mM NaCl, pH 7.4) containing 50 μM D-myo-phosphatidylinositol 4,5-bisphosphate substrate (Echelon Biosciences, Salt Lake City, Utah) and the desired PI3K isoform (Upstate USA, Charlottesville, Va.) were aliquoted to 96 well plates; kinase concentrations were 250-500 ng/well, such that linear kinetics were achieved over 90 min. The compound to be tested was then added as 2.5 μL of a DMSO stock to final concentration range of 100 μM. to 1 nM. Reactions were initiated by addition of 10 μL of ATP to a final concentration of 3 μM, and after 90 min 50 μL of Kinase-Glo reagent (Promega, Madison, Wis.) added to quantify residual ATP levels; luminosity was measured using an Ultra 384 instrument (Tecan, Durham, N.C.). Control reactions omitting either test compound or substrate were also performed. IC50 values were derived from experimental data by non-linear curve fitting (Prism Version 4; GraphPad Software, San Diego, Calif.).

T1 sequence (P48736 whole entry): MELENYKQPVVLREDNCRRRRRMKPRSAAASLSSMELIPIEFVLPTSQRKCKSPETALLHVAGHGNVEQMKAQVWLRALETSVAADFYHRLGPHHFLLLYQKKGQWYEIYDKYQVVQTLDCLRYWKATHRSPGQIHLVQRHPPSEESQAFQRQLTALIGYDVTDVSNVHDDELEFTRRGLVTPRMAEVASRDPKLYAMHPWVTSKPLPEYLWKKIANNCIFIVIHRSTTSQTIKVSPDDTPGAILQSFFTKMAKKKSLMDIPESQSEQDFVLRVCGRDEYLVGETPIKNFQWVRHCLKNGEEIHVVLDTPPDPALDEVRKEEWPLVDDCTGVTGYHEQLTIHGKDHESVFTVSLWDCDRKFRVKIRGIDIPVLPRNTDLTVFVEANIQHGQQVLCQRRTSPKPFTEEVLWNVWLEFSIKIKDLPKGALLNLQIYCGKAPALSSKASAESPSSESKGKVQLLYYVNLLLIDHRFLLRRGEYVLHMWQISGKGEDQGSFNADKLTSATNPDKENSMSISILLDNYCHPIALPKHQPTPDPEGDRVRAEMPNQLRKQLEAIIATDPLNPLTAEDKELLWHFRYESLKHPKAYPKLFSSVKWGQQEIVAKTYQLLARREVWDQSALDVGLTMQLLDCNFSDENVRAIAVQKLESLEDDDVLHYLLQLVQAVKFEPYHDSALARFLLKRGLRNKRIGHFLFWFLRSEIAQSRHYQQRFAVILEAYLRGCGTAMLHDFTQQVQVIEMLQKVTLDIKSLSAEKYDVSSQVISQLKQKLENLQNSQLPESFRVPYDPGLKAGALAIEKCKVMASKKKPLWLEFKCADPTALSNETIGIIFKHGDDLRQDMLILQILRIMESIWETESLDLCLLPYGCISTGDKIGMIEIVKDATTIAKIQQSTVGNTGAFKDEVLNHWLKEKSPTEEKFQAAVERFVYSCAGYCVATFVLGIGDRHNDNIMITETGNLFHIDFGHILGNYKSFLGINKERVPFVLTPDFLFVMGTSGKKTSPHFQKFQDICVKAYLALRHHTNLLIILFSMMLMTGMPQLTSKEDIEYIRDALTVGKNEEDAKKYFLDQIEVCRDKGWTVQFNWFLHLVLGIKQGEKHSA

In general, IC50 refers to the concentration that inhibits the measured activity by half. In test [1], `Nc1nc(N)c2nc(-c3cccc4[nH]ccc34)cnc2n1` [Compound III, 6-(1H-Indol-4-yl)pteridine-2,4-diamine] yielded an IC50 of 85 nM. The PI3K isoform selectivity result in test [2] was “less selective”.
